In patent US20150125893A1, “TRANSPORTER BIOSENSORS” (Carnegie Institute of Washington, priority 2013, published 2015):

Assays:
[1] = system: NRT1.1 T101A mutant fusion protein; assay: Nitrate sensor fluorescence response in yeast, NRT1.1 T101A low affinity mutant fusion protein; format: cell-based, Arabidopsis thaliana
Method: Yeast strains used in this study were BJ5465 [MATa, ura3-52, trp1, leu2Δ1, his3Δ200, pep4::HIS3, prb1Δ1.6R, cant GAL+] obtained from Yeast Genetic Stock Center (University of California, Berkeley, Calif.). Yeast was transformed using the lithium acetate method and selected on solid YNB (minimal yeast medium without nitrogen; Difco) supplemented with 2% glucose and -Ura DropOut (Clontech). Single colonies were grown in 5 mL liquid YNB supplemented with 2% glucose and -Ura DropOut under agitation (220 rpm) at 30° C. until OD600 nm˜0.8 was reached. The liquid cultures were subcultured by diluted to OD600 nm 0.01 in the same liquid medium and conditions at 30° C. until OD600 nm 0.2 was reached. […] Fluorescence was measured by a fluorescence plate reader (M1000, TECAN), in bottom reading mode using a 7.5 nm bandwidth for both excitation and emission. To measure fluorescence response to substrate addition, 100 μL of substrate (dissolved in MES buffer as 500% stock solution) were added to 100 μL of cells in a 96-well plate (Greiner). Fluorescence from cultures harboring yeast expression vectors pDRFlip30, 39, and 42 was measured as emission at λem=470-570 nm using excitation at λexc=428 nm and fluorescence using yeast expression vector pDRFlip34 and 35 was measured as emission at λem=470-570 nm using excitation at λexc=440 nm.

[2] = system: CHL1 nitrate transporter (Aphrodite-t9 N-terminus, Teal-t9 C-terminus)
Excerpt: (§1) All transporter and sensor constructs were inserted in the yeast expression vector pDRFlip30, 34, 35, 39, 42-GW. The details of the vectors are as follows: pDRFlip30 using pair of N-terminal fluorescent protein Aphordite t9 (AFPt9), 9 amino acids truncated of C-term of AFP, and C-terminal fluorescent protein monomeric Cerulean (mCer); pDRFlip 39 using pair of N-terminally fused fluorescent protein enhanced dimer Aphrodite t9 (edAFPt9) and C-terminal fluorescent protein enhanced dimer, 7 amino acids and 9 amino acids truncated of N-term and C-term of eCyan (t7.ed.eCFPt9), respectively; pDRFlip 42 using pair of N-terminal fluorescent protein Citrine and C-terminal fluorescent protein mCer; pDRFlip 34 using pair of N-terminal fluorescent protein AFPt9 and C-terminal fluorescent protein t7.Teal.t9 (t7.TFP.t9), and pDRFlip 35 using pair of N-terminal fluorescent protein AFPt9 and C-terminal fluorescent protein mTFPt9. All vectors contained […] replication origin, GATEWAY™ cassette-attR1-CmR-ccdB gene-attR2 sequence, which is between the pair of fluorescent proteins, a PMA1 promoter fragment, an ADH terminator, different pairs of fluorescent proteins, and the URA cassette for selection in yeast. The full length ORF of NRT1.1 and different mutants of NRT1.1, such as T101A, T101D, P492L from Arabidopsis (At1g12110) in TOPO GATEWAY™ entry vector were used to prepare the nitrate sensors of the present invention. The yeast vector harboring the constructs was then created by the GATEWAY™ LR reaction between different forms of pTOPO-NRT and different pDRFlip-GWs, following manufacturer's instructions..
(§2) Yeast strains used in this study were BJ5465 [MATa, ura3-52, trp1, leu2Δ1, his3Δ200, pep4::HIS3, prb1Δ1.6R, cant GAL+] obtained from Yeast Genetic Stock Center (University of California, Berkeley, Calif.). Yeast was transformed using the lithium acetate method and selected on solid YNB (minimal yeast medium without nitrogen; Difco) supplemented with 2% glucose and -Ura DropOut (Clontech).

[3] = system: CHL1 nitrate transporter (AFPt9 in central loop, Teal-t9 in loop between helices 10 and 11)
Excerpt: as §1, §2

[4] = system: pDRFlip302 (NRT1.1 with AFPt9 and mCerulean)
Excerpt: as §1, §2

[5] = system: OzTrac-MSL10; assay: OzTrac-MSL10 FRET osmosensor expressed in yeast cells, response to osmolytes; format: cell-based, Arabidopsis thaliana; details: for FRET emission ratio: addition of 1M osmolyte; for FRET emission ratio / FRET response to osmolyte: yeast cells; for FRET response to osmolyte: hyper-osmotic stress, NaCl at 1M
Excerpt: Fusion proteins comprising the mechanisensitive channel small conductance-like 10 (AtMSL10) were constructed, potentially creating an osmosensor. […] This t9AFP-AtMSL10-t7TFPt9 protein is named as OzTrac-MSL10. […] Upon treatment of 1 M NaCl, which induces hyper-osmotic stress, AtMSL10 will undergo a conformational change into the closed state which causes the FRET pairs to come closer, resulting in a higher FRET.
The OzTrac-MSL10 FRET sensor can detect a range of osmolarity concentration changes. […] The calculation of the dissociation constant is around 0.5 M for NaCl and KCl, and around 1M for […] and […].

Compound	FRET emission ratio [5]	FRET response to osmolyte [5]	further results
O=[N+]([O-])[O-].[K+] [KNO3]			sensor response ([1]; high levels of KNO3): only responds to addition of high levels; sensor response ([1]; low levels of KNO3): does not respond
O=[N+]([O-])O [nitrate]			change in FRET on addition of nitrate [2]: does not induce a change in FRET; change in FRET on addition of nitrate [3]: does not induce a change in FRET; change in FRET on addition of nitrate [4]: does not induce a change in FRET
[Cl-].[K+] [KCl, potassium chloride]	higher FRET emission ratio	increased the FRET	
[Cl-].[Na+] [NaCl, sodium chloride]	higher FRET emission ratio	dramatic FRET change	emission spectrum change ([5]; 1M NaCl, excitation at 440 nm): decrease in fluorescence intensity of donor and increase of acceptor; FRET change with serial concentrations ([5]; serial NaCl concentrations (mM), excitation at 440 nm): concentration-dependent FRET changes
OC[C@@H](O)[C@@H](O)[C@H](O)[C@@H](O)CO [sorbitol]	higher FRET emission ratio	increased the FRET	
OCC(O)CO [glycerol]	higher FRET emission ratio	increased the FRET	
